# Test results: ChEMBL document CHEMBL3045777, “Response of selected horseweed (Conyza canadensis (L.) Cronq.) populations to glyphosate” (2004)
# Assays:
# [1] = system: Erigeron canadensis; assay: Herbicidal activity against compound-resistant Conyza canadensis (horseweed) isolate 2 under greenhouse condition at 9 kg ae/ha measured 7 days post treatment relative to control; type: functional
# [2] = system: Erigeron canadensis; assay: Herbicidal activity against compound-resistant Conyza canadensis (horseweed) isolate 2 under greenhouse condition at 2.52 kg ae/ha measured 7 days post treatment relative to control; type: functional
# [3] = system: Erigeron canadensis; assay: Herbicidal activity against compound-resistant Conyza canadensis (horseweed) isolate 2 under greenhouse condition at 1.68 kg ae/ha measured 7 days post treatment relative to control; type: functional
# [4] = system: Erigeron canadensis; assay: Herbicidal activity against compound-resistant Conyza canadensis (horseweed) isolate 2 under greenhouse condition at 1.25 kg ae/ha measured 7 days post treatment relative to control; type: functional
# [5] = system: Erigeron canadensis; assay: Herbicidal activity against Conyza canadensis (horseweed) under greenhouse condition at 0.05 kg ae/ha measured 21 days post treatment relative to control; type: functional
# [6] = system: Erigeron canadensis; assay: Herbicidal activity against Conyza canadensis (horseweed) under greenhouse condition at 0.05 kg ae/ha measured 14 days post treatment relative to control; type: functional
# [7] = system: Erigeron canadensis; assay: Herbicidal activity against Conyza canadensis (horseweed) under greenhouse condition at 0.05 kg ae/ha measured 7 days post treatment relative to control; type: functional
# [8] = system: Erigeron canadensis; assay: Herbicidal activity against compound-resistant Conyza canadensis (horseweed) isolate 2 under greenhouse condition at 9 kg ae/ha measured 14 days post treatment relative to control; type: functional
# [9] = system: Erigeron canadensis; assay: Herbicidal activity against compound-resistant Conyza canadensis (horseweed) isolate 2 under greenhouse condition at 1.68 kg ae/ha measured 21 days post treatment relative to control; type: functional
# [10] = system: Erigeron canadensis; assay: Herbicidal activity against compound-resistant Conyza canadensis (horseweed) isolate 2 under greenhouse condition at 0.84 kg ae/ha measured 21 days post treatment relative to control; type: functional
# [11] = system: Erigeron canadensis; assay: Herbicidal activity against compound-resistant Conyza canadensis (horseweed) isolate 2 under greenhouse condition at 1.68 kg ae/ha measured 14 days post treatment relative to control; type: functional
# [12] = system: Erigeron canadensis; assay: Herbicidal activity against compound-sensitive Conyza canadensis (horseweed) under greenhouse condition at 0.45 kg ae/ha measured 14 days post treatment relative to control; type: functional
# [13] = system: Erigeron canadensis; assay: Herbicidal activity against compound-sensitive Conyza canadensis (horseweed) under greenhouse condition at 9 kg ae/ha measured 7 days post treatment relative to control; type: functional
# [14] = system: Erigeron canadensis; assay: Herbicidal activity against compound-sensitive Conyza canadensis (horseweed) under greenhouse condition at 3.36 kg ae/ha measured 7 days post treatment relative to control; type: functional
# [15] = system: Erigeron canadensis; assay: Herbicidal activity against compound-sensitive Conyza canadensis (horseweed) under greenhouse condition at 1.25 kg ae/ha measured 7 days post treatment relative to control; type: functional
# [16] = system: Erigeron canadensis; assay: Herbicidal activity against compound-sensitive Conyza canadensis (horseweed) under greenhouse condition at 0.45 kg ae/ha measured 7 days post treatment relative to control; type: functional
# [17] = system: Erigeron canadensis; assay: Herbicidal activity against compound-resistant Conyza canadensis (horseweed) isolate 1 under greenhouse condition at 1.68 kg ae/ha measured 21 days post treatment relative to control; type: functional
# [18] = system: Erigeron canadensis; assay: Herbicidal activity against compound-resistant Conyza canadensis (horseweed) isolate 1 under greenhouse condition at 0.84 kg ae/ha measured 21 days post treatment relative to control; type: functional
# [19] = system: Erigeron canadensis; assay: Herbicidal activity against compound-resistant Conyza canadensis (horseweed) isolate 1 under greenhouse condition at 1.25 kg ae/ha measured 14 days post treatment relative to control; type: functional
# [20] = system: Erigeron canadensis; assay: Herbicidal activity against compound-resistant Conyza canadensis (horseweed) isolate 1 under greenhouse condition at 3.36 kg ae/ha measured 7 days post treatment relative to control; type: functional
# [21] = system: Erigeron canadensis; assay: Herbicidal activity against compound-resistant Conyza canadensis (horseweed) isolate 1 under greenhouse condition at 2.52 kg ae/ha measured 7 days post treatment relative to control; type: functional
# [22] = system: Erigeron canadensis; assay: Herbicidal activity against compound-resistant Conyza canadensis (horseweed) isolate 1 under greenhouse condition at 1.25 kg ae/ha measured 7 days post treatment relative to control; type: functional
# [23] = system: Erigeron canadensis; assay: Herbicidal activity against compound-sensitive Conyza canadensis (horseweed) under greenhouse condition at 9 kg ae/ha measured 14 days post treatment relative to control; type: functional
# [24] = system: Erigeron canadensis; assay: Herbicidal activity against compound-sensitive Conyza canadensis (horseweed) under greenhouse condition at 0.84 kg ae/ha measured 21 days post treatment relative to control; type: functional
# [25] = system: Erigeron canadensis; assay: Herbicidal activity against compound-sensitive Conyza canadensis (horseweed) under greenhouse condition at 1.68 kg ae/ha measured 14 days post treatment relative to control; type: functional
# [26] = system: Erigeron canadensis; assay: Herbicidal activity against compound-resistant Conyza canadensis (horseweed) isolate 1 under greenhouse condition at 2.52 kg ae/ha measured 14 days post treatment relative to control; type: functional
# [27] = system: Erigeron canadensis; assay: Herbicidal activity against compound-resistant Conyza canadensis (horseweed) isolate 1 under greenhouse condition at 1.68 kg ae/ha measured 14 days post treatment relative to control; type: functional
# [28] = system: Erigeron canadensis; assay: Herbicidal activity against compound-sensitive Conyza canadensis (horseweed) under greenhouse condition at 2.52 kg ae/ha measured 21 days post treatment relative to control; type: functional
# [29] = system: Erigeron canadensis; assay: Herbicidal activity against compound-sensitive Conyza canadensis (horseweed) under greenhouse condition at 1.25 kg ae/ha measured 21 days post treatment relative to control; type: functional
# [30] = system: Erigeron canadensis; assay: Herbicidal activity against compound-sensitive Conyza canadensis (horseweed) under greenhouse condition assessed as fresh weight at 9 kg ae/ha measured 21 days post treatment relative to untreated control
# [31] = system: Erigeron canadensis; assay: Herbicidal activity against compound-sensitive Conyza canadensis (horseweed) under greenhouse condition assessed as fresh weight at 1.68 kg ae/ha measured 21 days post treatment relative to untreated control
# [32] = system: Erigeron canadensis; assay: Herbicidal activity against compound-sensitive Conyza canadensis (horseweed) under greenhouse condition assessed as fresh weight at 1.25 kg ae/ha measured 21 days post treatment relative to untreated control
# [33] = system: Erigeron canadensis; assay: Herbicidal activity against compound-sensitive Conyza canadensis (horseweed) under greenhouse condition assessed as fresh weight at 0.45 kg ae/ha measured 21 days post treatment relative to untreated control
# [34] = system: Erigeron canadensis; assay: Herbicidal activity against compound-resistant Conyza canadensis (horseweed) isolate 1 under greenhouse condition assessed as fresh weight at 3.36 kg ae/ha measured 21 days post treatment relative to untreated control
# [35] = system: Erigeron canadensis; assay: Herbicidal activity against compound-resistant Conyza canadensis (horseweed) isolate 2 under greenhouse condition assessed as fresh weight at 1.68 kg ae/ha measured 21 days post treatment relative to untreated control
# [36] = system: Erigeron canadensis; assay: Herbicidal activity against compound-resistant Conyza canadensis (horseweed) isolate 1 under greenhouse condition assessed as fresh weight at 1.25 kg ae/ha measured 21 days post treatment relative to untreated control
# [37] = system: Erigeron canadensis; assay: Herbicidal activity against compound-resistant Conyza canadensis (horseweed) isolate 1 under greenhouse condition assessed as fresh weight at 0.84 kg ae/ha measured 21 days post treatment relative to untreated control
structure (smiles),measurement,setting,value
O=C(O)CNCP(=O)(O)O [GLYPHOSATE],Activity,[1],73%
same,Activity,[2],53%
same,Activity,[3],50%
same,Activity,[4],33%
same,Activity,[5],26%
same,Activity,[6],16%
same,Activity,[7],14%
same,Activity,[8],91%
same,Activity,[9],50%
same,Activity,[10],24%
same,Activity,[11],44%
same,Activity,[12],40%
same,Activity,[13],90%
same,Activity,[14],85%
same,Activity,[15],60%
same,Activity,[16],40%
same,Activity,[17],43%
same,Activity,[18],11%
same,Activity,[19],18%
same,Activity,[20],73%
same,Activity,[21],58%
same,Activity,[22],28%
same,Activity,[23],98%
same,Activity,[24],88%
same,Activity,[25],98%
same,Activity,[26],45%
same,Activity,[27],40%
same,Activity,[28],99%
same,Activity,[29],90%
same,"level, % of control",[30],1%
same,"level, % of control",[31],1%
same,"level, % of control",[32],19%
same,"level, % of control",[33],30%
same,"level, % of control",[34],7%
same,"level, % of control",[35],49%
same,"level, % of control",[36],88%
same,"level, % of control",[37],94%
